Here are results for 3 compounds from patent publication US20100168143A1, “QUINAZOLINE DERIVATIVES” (ASTRAZENECA AB, priority 2006, published 2010).

Each structure is given as a SMILES string.

Test [1] concerns phosphohistone H3 levels in drug-resistant MCF7-ADR human breast tumour cells. Description: In vitro drug-resistant cell phenotype and substrate phosphorylation assay (MCF7-ADR). The format is cell-based. The following applies: NCI/ADR-RES, 24 hours of treatment, read-out: EC50 for inhibition of phosphohistone H3 levels. The protocol:
(d) In Vitro Drug-Resistant Cell Phenotype and Substrate Phosphorylation Assay.
This assay is used to determine the cellular effects of compounds on drug-resistant MCF7-ADR human breast tumour cells in vitro.
Compounds typically cause inhibition of levels of phosphohistone H3 and an increase in the nuclear area of treated cells.
0.8×10^4 MCF7-ADR cells per well were plated in 100 μl DMEM media (containing 10% FCS (foetal calf serum) and 1% glutamine) in costar 96 well plates and left overnight at 37° C. and 5% CO2 to adhere.
All other procedures are identical to those for the above assay using SW620 cells.
The compounds of the invention generally have EC50 values for inhibition of phosphohistone H3 levels of […], particularly 0.5 nM to 1 μM and more particularly 0.5 nM to 0.5 μM.

In test [2] the target is aurora B kinase (Homo sapiens, UniProt Q96GD4). Description: In vitro aurora B kinase inhibition test. In kind it is biochemical. Particulars: aurora B-INCENP enzyme; 33P-ATP filter assay, 60 minutes; read-out: IC50 (50% inhibition of enzyme activity), aurora B. The source says: (b) In Vitro Aurora B Kinase Inhibition Test
aurora B kinase, sequence (Q96GD4 whole entry): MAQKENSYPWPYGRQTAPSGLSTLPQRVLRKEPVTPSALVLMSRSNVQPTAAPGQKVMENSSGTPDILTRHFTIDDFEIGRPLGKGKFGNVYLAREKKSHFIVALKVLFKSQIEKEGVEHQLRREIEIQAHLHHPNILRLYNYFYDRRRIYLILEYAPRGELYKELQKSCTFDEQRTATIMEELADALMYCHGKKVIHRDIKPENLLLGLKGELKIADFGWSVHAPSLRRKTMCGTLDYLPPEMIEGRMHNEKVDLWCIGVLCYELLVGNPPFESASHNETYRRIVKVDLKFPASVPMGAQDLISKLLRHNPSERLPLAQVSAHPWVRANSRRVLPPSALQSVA
aurora B kinase, sequence (Q9NQS7 826-918 partner limits assumed): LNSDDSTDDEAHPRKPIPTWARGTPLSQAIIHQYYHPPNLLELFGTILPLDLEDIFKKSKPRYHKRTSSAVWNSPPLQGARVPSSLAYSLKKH
This assay determines the ability of a test compound to inhibit serine-threonine kinase activity. DNA encoding aurora B may be obtained by total gene synthesis or by cloning. This DNA may then be expressed in a suitable expression system to obtain polypeptide with serine-threonine kinase activity. In the case of aurora B, the coding sequence was isolated from cDNA by polymerase chain reaction (PCR) and cloned into the pFastBac system in a manner similar to that described above for aurora A (i.e. to direct expression of a 6-histidine tagged aurora B protein).
For the large scale expression of aurora B kinase activity, Sf21 insect cells were grown at 28° C. in TC100 medium supplemented with 10% foetal calf serum (Viralex) and 0.2% F68 Pluronic (Sigma) on a Wheaton roller rig at 3 r.p.m. When the cell density reached 1.2×10^6 cells ml^−1 they were infected with plaque-pure aurora B recombinant virus at a multiplicity of infection of 1 and harvested 48 hours later. All subsequent purification steps were performed at 4° C. […]

On to `COc1cc(OC[C@H]2CCCN2)c2c(Nc3cnn(CC(=O)Nc4cccc(F)c4F)c3)ncnc2c1` [Prior art compound (I), reference compound], for which the EC50 in test [1] is 120 nM. Regarding `CCOc1cc(OC[C@H]2CCCCN2)c2c(Nc3cnn(CC(=O)Nc4cccc(F)c4F)c3)ncnc2c1` [compound 1], the IC50 in test [2] was 1.4 nM. The 50% effective concentration (EC50) in test [1] was under 1 nM. With `COc1cc(OC[C@H]2CCCCN2)c2c(Nc3cnn(CC(=O)Nc4cccc(F)c4F)c3)ncnc2c1` [compound 2, N-(2,3-difluorophenyl)-2-[4-({7-methoxy-5-[(2R)-piperidin-2-ylmethoxy]quinazolin-4-yl}amino)-1H-pyrazol-1-yl]acetamide], the IC50 in test [2] worked out at 1.4 nM. Moreover, the EC50 in test [1] came to 20 nM.

As usually defined, the EC50 is the concentration that produces a half-maximal response. One may read the IC50 as the concentration that inhibits the measured activity by half.
